The values below come from ChEMBL document CHEMBL1909046, “DrugMatrix in vitro pharmacology data”.

Where a SMILES comes first, the peptide text is derived from it. Bridges are numbered along the chain shown (N, C = ends). [ ]: non-standard residue; d: D form. The star is where a group is joined. Threoninol(2S,3R) = C[C@@H](O)[C@H](CO)N*

Series [1] is described as follows: DRUGMATRIX: Serotonin (5-Hydroxytryptamine) 5-HT3 radioligand binding (ligand: [3H] GR-65630). To be noted: hek293; Not Active = under 50% inhibition at 10 µM. Type of series: cell membranes, Membrane.
Series [2] has as its target Vascular endothelial growth factor receptor 1 (Homo sapiens, UniProt P17948). In kind it is cell-based. To be noted: huvec. Also: in other assays of this panel Not Active means under 50% inhibition at 10 µM.
In series [3] the target is C-C chemokine receptor type 5 (Homo sapiens, UniProt P51681). In kind it is cell membranes, HEK293, Membrane. The following applies: hek293. Also: in other assays of this panel Not Active means under 50% inhibition at 10 µM.
The target in series [4] is T1, Muscarinic acetylcholine receptor M5 (Homo sapiens, UniProt P08912). Also: in other assays of this panel Not Active means under 50% inhibition at 10 µM.
T1 sequence (P08912 whole entry): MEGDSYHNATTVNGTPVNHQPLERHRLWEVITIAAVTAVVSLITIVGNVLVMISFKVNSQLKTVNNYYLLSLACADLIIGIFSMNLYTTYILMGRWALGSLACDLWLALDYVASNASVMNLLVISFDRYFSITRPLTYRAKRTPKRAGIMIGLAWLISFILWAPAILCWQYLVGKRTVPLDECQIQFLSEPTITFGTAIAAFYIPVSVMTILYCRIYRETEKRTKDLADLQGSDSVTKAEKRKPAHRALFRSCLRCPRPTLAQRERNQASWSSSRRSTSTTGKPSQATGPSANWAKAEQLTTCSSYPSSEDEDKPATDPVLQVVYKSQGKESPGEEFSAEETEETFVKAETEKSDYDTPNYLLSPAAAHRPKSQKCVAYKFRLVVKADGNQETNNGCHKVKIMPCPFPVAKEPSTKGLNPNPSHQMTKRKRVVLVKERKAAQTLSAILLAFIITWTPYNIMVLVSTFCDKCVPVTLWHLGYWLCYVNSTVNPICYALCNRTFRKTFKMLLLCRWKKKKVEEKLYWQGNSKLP
In kind it is cell membranes, CHO-K1, Membrane.

Series [5] concerns the target Nitric oxide synthase 1 (Rattus norvegicus, UniProt P29476). In kind it is tissue-based, Cerebellum. Also: in other assays of this panel Not Active means under 50% inhibition at 10 µM.
Series [6] deals with Cytochrome P450 3A4 (Homo sapiens, UniProt P08684). To be noted: bti-tn-5b1-4.
The target in series [7] is T2, Estrogen receptor (Homo sapiens, UniProt P03372). Also: in other assays of this panel Not Active means under 50% inhibition at 10 µM.
T2 sequence (P03372 whole entry): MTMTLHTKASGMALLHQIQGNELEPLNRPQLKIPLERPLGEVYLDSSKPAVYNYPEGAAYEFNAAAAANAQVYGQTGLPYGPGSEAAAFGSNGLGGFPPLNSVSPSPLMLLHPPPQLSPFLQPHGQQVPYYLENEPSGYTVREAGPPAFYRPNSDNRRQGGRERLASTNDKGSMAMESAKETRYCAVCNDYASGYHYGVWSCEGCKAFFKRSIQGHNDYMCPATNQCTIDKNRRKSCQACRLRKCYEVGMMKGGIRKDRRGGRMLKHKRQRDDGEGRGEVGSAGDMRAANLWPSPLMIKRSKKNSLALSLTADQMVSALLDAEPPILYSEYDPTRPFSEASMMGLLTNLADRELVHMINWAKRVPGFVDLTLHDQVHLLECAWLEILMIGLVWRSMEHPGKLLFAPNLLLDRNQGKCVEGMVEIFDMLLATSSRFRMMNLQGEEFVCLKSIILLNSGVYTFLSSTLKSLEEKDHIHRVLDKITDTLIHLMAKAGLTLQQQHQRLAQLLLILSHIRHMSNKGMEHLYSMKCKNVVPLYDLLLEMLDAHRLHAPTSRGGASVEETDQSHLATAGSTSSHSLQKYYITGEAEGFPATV
The following applies: sf9.

Sequence of Vascular endothelial growth factor receptor 1 (P17948 whole entry): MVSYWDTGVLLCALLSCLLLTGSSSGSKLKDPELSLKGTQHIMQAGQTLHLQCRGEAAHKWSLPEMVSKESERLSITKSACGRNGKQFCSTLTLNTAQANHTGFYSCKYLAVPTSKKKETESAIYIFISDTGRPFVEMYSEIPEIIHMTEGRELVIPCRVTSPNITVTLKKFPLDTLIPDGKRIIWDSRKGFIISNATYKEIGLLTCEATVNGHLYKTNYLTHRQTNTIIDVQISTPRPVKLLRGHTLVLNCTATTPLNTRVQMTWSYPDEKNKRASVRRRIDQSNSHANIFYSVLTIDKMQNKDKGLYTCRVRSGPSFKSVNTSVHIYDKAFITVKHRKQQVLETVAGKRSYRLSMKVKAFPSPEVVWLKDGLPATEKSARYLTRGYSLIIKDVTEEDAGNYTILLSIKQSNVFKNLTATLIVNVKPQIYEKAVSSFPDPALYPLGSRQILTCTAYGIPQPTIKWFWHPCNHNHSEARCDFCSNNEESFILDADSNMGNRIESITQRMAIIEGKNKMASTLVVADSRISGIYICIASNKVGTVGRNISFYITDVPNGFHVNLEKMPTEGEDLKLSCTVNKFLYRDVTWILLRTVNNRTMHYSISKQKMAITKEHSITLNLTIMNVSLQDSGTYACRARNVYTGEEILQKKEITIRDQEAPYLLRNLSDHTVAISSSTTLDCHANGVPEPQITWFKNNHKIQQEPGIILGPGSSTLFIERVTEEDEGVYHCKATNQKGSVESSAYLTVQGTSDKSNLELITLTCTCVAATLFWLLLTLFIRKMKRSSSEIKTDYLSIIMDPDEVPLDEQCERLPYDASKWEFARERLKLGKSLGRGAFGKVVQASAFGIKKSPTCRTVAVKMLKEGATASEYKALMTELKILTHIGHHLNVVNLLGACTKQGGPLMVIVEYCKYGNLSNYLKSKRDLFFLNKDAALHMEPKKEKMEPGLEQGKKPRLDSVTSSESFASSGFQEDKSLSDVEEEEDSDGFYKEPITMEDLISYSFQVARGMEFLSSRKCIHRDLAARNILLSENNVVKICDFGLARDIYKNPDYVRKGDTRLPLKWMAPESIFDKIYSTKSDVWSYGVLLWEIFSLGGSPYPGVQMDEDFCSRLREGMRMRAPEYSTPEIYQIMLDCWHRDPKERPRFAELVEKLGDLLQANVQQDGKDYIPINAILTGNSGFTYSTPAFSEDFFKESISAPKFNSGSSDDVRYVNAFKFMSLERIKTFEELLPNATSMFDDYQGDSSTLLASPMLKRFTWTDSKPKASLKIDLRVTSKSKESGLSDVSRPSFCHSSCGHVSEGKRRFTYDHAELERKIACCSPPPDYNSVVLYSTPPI
Sequence of Cytochrome P450 3A4 (P08684 whole entry): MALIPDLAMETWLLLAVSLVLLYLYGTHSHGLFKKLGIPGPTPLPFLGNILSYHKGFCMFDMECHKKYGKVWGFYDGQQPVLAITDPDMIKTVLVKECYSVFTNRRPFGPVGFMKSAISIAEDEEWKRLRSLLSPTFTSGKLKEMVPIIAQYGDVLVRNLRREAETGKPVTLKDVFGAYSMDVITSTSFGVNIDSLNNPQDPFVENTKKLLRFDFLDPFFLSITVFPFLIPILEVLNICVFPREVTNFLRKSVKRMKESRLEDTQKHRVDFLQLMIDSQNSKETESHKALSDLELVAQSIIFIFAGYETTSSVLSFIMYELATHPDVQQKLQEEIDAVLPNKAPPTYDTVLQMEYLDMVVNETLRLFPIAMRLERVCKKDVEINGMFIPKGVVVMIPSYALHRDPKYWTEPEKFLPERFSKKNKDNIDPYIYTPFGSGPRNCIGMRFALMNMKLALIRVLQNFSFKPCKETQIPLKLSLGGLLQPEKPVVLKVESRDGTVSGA
Sequence of Nitric oxide synthase 1 (P29476 whole entry): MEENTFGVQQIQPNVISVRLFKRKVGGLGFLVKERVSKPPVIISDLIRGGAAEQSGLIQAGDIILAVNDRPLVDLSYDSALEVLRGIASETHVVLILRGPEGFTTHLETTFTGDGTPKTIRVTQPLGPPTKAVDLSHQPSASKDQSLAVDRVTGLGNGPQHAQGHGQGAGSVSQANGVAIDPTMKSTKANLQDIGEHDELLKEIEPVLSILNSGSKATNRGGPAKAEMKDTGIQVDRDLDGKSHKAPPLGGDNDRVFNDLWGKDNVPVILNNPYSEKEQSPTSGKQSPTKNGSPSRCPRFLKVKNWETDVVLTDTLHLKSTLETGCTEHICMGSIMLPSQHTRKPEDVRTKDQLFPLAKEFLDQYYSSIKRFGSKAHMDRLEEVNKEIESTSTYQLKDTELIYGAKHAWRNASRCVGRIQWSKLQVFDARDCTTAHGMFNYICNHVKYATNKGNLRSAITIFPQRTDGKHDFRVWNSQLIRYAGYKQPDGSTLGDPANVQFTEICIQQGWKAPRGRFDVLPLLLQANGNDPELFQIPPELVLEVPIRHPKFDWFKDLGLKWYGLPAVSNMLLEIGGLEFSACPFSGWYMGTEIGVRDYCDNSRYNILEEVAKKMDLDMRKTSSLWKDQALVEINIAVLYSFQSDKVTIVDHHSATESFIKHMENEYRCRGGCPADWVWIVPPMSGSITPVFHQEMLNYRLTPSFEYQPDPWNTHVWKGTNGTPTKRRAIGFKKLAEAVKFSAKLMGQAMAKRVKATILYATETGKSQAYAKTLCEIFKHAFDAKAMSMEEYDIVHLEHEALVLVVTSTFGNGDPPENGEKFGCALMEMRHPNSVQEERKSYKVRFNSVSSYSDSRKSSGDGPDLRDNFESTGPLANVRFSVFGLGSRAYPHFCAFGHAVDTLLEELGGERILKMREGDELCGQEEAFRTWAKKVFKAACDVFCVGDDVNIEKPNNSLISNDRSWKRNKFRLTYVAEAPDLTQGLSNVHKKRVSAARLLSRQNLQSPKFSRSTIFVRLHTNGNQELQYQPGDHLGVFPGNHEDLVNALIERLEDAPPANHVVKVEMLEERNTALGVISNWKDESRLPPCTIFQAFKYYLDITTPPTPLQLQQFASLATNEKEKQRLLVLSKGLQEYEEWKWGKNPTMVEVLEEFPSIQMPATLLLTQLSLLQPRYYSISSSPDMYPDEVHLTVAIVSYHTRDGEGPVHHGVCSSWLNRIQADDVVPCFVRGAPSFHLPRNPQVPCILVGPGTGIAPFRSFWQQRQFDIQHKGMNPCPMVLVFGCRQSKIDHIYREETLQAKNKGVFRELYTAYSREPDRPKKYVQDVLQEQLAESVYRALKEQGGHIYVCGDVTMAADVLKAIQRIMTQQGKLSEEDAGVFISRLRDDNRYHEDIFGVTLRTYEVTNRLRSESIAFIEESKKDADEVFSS
Sequence of C-C chemokine receptor type 5 (P51681 whole entry): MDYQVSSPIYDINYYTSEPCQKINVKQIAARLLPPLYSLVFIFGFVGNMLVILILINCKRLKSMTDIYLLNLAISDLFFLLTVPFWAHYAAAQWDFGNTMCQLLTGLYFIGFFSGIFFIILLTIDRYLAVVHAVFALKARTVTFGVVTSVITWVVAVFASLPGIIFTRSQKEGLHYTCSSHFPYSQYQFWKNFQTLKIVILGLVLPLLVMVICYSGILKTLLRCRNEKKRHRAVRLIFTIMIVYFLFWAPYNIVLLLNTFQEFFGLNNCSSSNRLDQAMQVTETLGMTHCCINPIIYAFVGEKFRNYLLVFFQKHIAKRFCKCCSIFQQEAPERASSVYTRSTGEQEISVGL

On to `COc1ccccc1C(=O)N1CCC(Cc2ccccc2)CC1`, for which the half-inhibitory concentration (IC50) entry in series [1], in series [2], in series [3], in series [4] (cho-k1), in series [5] and in series [6] was “Not Active” throughout. Also, the IC50 result in series [7] is recorded as “Not Active”. Further, the Ki entry in series [1] and in series [6] was “Not Active” each time.
In the case of `Cc1ccccc1C(=O)N1CCC(Cc2ccccc2)CC1`, the IC50 entry in series [1], in series [2], in series [3], in series [4] (cho-k1), in series [5] and in series [6] was “Not Active” in each case. The IC50 result in series [7] is “Not Active”. The Ki result in series [1] and in series [6] was “Not Active” each time.
Take `N=C(Nc1ccccc1)Nc1ccccc1`: the half-maximal inhibitory concentration (IC50) result in series [1], in series [2], in series [3], in series [4] (cho-k1), in series [5] and in series [6] was “Not Active” each time. Moreover, in series [7], the 50% inhibitory concentration (IC50) result is “Not Active”. Besides, the inhibition constant (Ki) result in series [1] and in series [6] was “Not Active” in each case.
Consider `C[C@@H](O)[C@H](CO)NC(=O)[C@@H]1CSSC[C@H](NC(=O)[C@H](N)Cc2ccccc2)C(=O)N[C@@H](Cc2ccccc2)C(=O)N[C@H](Cc2c[nH]c3ccccc23)C(=O)N[C@@H](CCCCN)C(=O)N[C@@H]([C@@H](C)O)C(=O)N1` (H-[dF]CF[dW]KTC-{Threoninol(2S,3R)}; disulfide 2-7), for which the IC50 entry in series [1], in series [2], in series [3], in series [4] (cho-k1), in series [5] and in series [6] was “Not Active” throughout. Also, in series [7], the IC50 result was “Not Active”. Moreover, the Ki result in series [1] and in series [6] was “Not Active” in each case.
In the case of `S=C=Nc1cccc2ccccc12` [1-NAPHTHYLISOTHIOCYANATE], the half-inhibitory concentration (IC50) entry in series [1], in series [2], in series [3], in series [4] (cho-k1), in series [5] and in series [6] was “Not Active” throughout. Besides, the IC50 result in series [7] is “Not Active”. Also, the inhibitory constant (Ki) entry in series [1] and in series [6] was “Not Active” throughout.
As for `C[C@](O)(CS(=O)(=O)c1ccc(F)cc1)C(=O)Nc1ccc(C#N)c(C(F)(F)F)c1` [(R)-BICALUTAMIDE], the half-inhibitory concentration (IC50) result in series [1], in series [2], in series [3], in series [4] (cho-k1), in series [5] and in series [6] was “Not Active” throughout. Besides, the half-maximal inhibitory concentration (IC50) entry in series [7] was “Not Active”. The Ki entry in series [1] and in series [6] was “Not Active” in each case.
For `CCCC(=O)Nc1ccc(OCC(O)CNC(C)C)c(C(C)=O)c1` (stereo not drawn) [ACEBUTOLOL], the IC50 entry in series [1], in series [2], in series [3], in series [4] (cho-k1), in series [5] and in series [6] was “Not Active” in each case. Besides, the IC50 result in series [7] is recorded as “Not Active”. The Ki result in series [1] and in series [6] was “Not Active” each time.
On to `COc1cc2c(c3oc(=O)c4c(c13)CCC4=O)[C@@H]1C=CO[C@@H]1O2` [AFLATOXIN], for which the IC50 entry in series [1], in series [2], in series [3], in series [4] (cho-k1), in series [5] and in series [6] was “Not Active” throughout. Moreover, the concentration for half-maximal inhibition (IC50) entry in series [7] is recorded as “Not Active”. The Ki result in series [1], in series [2], in series [3], in series [4] (cho-k1), in series [5] and in series [6] was “Not Active” each time. Besides, the Ki entry in series [7] is “Not Active”.
For `O=NN(CCCl)C(=O)NCCCl` [CARMUSTINE], the IC50 result in series [1], in series [2], in series [3], in series [4] (cho-k1), in series [5] and in series [7] was “Not Active” throughout. The inhibition constant (Ki) entry in series [1] is “Not Active”.
As to `CC1=C(C(=O)O)N2C(=O)[C@@H](NC(=O)[C@H](N)c3ccccc3)[C@H]2SC1` [CEPHALEXIN ANHYDROUS], the IC50 entry in series [1], in series [2], in series [3], in series [4] (cho-k1), in series [5] and in series [7] was “Not Active” each time. Moreover, the Ki entry in series [1] is reported as “Not Active”.
`O=C(N[C@H](CO)[C@H](O)c1ccc([N+](=O)[O-])cc1)C(Cl)Cl` [CHLORAMPHENICOL]: the IC50 result in series [1], in series [2], in series [3], in series [4] (cho-k1), in series [5] and in series [7] was “Not Active” in each case. Besides, the Ki entry in series [1] is “Not Active”.
For `CCOC(=O)C(C)(C)Oc1ccc(Cl)cc1` [CLOFIBRATE], the 50% inhibitory concentration (IC50) entry in series [1], in series [2], in series [3], in series [4] (cho-k1), in series [5] and in series [7] was “Not Active” in each case. Besides, in series [1], the Ki entry is reported as “Not Active”.
For `C/C=C/C[C@@H](C)[C@@H](O)[C@H]1C(=O)N[C@@H](CC)C(=O)N(C)CC(=O)N(C)[C@@H](CC(C)C)C(=O)N[C@@H](C(C)C)C(=O)N(C)[C@@H](CC(C)C)C(=O)N[C@@H](C)C(=O)N[C@H](C)C(=O)N(C)[C@@H](CC(C)C)C(=O)N(C)[C@@H](CC(C)C)C(=O)N(C)[C@@H](C(C)C)C(=O)N1C` [CYCLOSPORINE], the IC50 entry in series [1], in series [2], in series [3], in series [4] (cho-k1), in series [5] and in series [7] was “Not Active” throughout. For the same molecule, in series [1], the Ki result is “Not Active”.
As to `CN(C)c1ccc(C(=C2C=CC(=[N+](C)C)C=C2)c2ccc(N(C)C)cc2)cc1.[Cl-]` [GENTIAN VIOLET], the IC50 result in series [1] is “Not Active”; in series [2] it was “Not Active”; in series [3], “Not Active”; in series [4] (read-out: IC50), 535 nM; in series [5], “Not Active”; in series [7] it was “Not Active”. Further, the results for the Ki entry in series [1] and in series [4] (read-out: Ki) were “Not Active” and 384 nM, respectively.
As to `CC(C)(C(=O)c1cccnc1)c1cccnc1` [METYRAPONE], the IC50 entry in series [1], in series [2], in series [3], in series [4] (cho-k1), in series [5] and in series [7] was “Not Active” each time. In series [1], the Ki entry was “Not Active”.
For the molecule `COC(=O)C1=C(C)NC(C)=C(C(=O)OCC(C)C)C1c1ccccc1[N+](=O)[O-]` (stereo not drawn) [NISOLDIPINE], the IC50 entry in series [1], in series [2], in series [3], in series [4] (cho-k1), in series [5] and in series [7] was “Not Active” in each case. The inhibitory constant (Ki) entry in series [1] was “Not Active”.
`CCn1cc(C(=O)O)c(=O)c2cc(F)c(N3CCN(C)CC3)cc21` [PEFLOXACIN]: the IC50 result in series [1], in series [2], in series [3], in series [4] (cho-k1), in series [5] and in series [7] was “Not Active” throughout. The inhibition constant (Ki) result in series [1] is reported as “Not Active”.
On to `CCC1=C[C@@H]2CN(C1)Cc1c([nH]c3ccccc13)[C@@](C(=O)OC)(c1cc3c(cc1OC)N(C)[C@H]1[C@@](O)(C(=O)OC)[C@H](OC(C)=O)[C@]4(CC)C=CCN5CC[C@]31[C@@H]54)C2` [VINORELBINE], for which the IC50 entry in series [1], in series [2], in series [3], in series [4] (cho-k1), in series [5] and in series [7] was “Not Active” throughout. In series [1], the Ki result is given as “Not Active”.
